Values of other authors in patent publication US20110009348A1, “CARBOHYDRATE GEL” (priority 2008, published 2011).

Test system: male cyclists
Settings: comparison values given in text, source not stated

O=C(CO)[C@@H](O)[C@H](O)[C@H](O)CO [fructose]
peak oxidation achieved with a single carbohydrate source: ~0.4 g/min
